Results as given in paper PMC11738990, “A small-molecule TNIK inhibitor targets fibrosis in preclinical and clinical models” (Nature Biotechnology, 2024).
Values joined by “and” are separate entries in the source; they are usually repeats but may differ in a detail not shown here. Equal values may be shown once.

Tests used:
HK-2 cells = assay: TGF-β-induced α-SMA expression, western blot; assay type: cell-based, human
Experimental: INS018-055 stock was diluted to eight concentrations in a threefold dilution with DMSO from the final highest concentration at 10 μM. A total of 3.0 × 10^5 HK-2 cells per well were seeded into a six-well plate containing 2.0 ml culture medium at a density of 3.0 × 10^5 cells per well. The cells were cultured overnight at 37 °C. The next day, the complete medium was replaced with K-SFM medium supplemented with 0.025 mg ml^−1 bovine pituitary extract, 2.5 ng ml^−1 EGF and 1% penicillin–streptomycin for starvation. After 24 h of incubation, HK-2 cells were treated with compounds (eight concentrations, threefold dilution) for 30 min before being stimulated with 8 ng ml^−1 TGF-β for an additional 48 h. TGF-β induction was used as the maximum induction positive control. The final DMSO concentration in the assay was 0.1%. Cells were cultured for 48 h at 37 °C. The culture medium was discarded at the end of induction. Cells were washed once using ice-cold DPBS. RIPA buffer was added to lyse the cells for 20 min. Cells were collected, and the supernatant was stored at −80 °C. The total amount of protein in the lysate was determined using the BCA Protein Assay Kit.
For whole-cell lysates, cells were collected and lysed on ice for 20 min with RIPA buffer with protease and phosphatase inhibitors (cOmplete and PhosSTOP, Roche). The protein concentration of the cell lysates was determined using the BCA Protein Assay Kit. After denaturation, whole-cell lysates and cytoplasm and nuclear extraction fractions were loaded onto 4–12% gradient Bis-Tris gels (15 wells) and 4–20% Tris-glycine gels (26 wells), respectively. For western blot detection of target proteins, 15 μg of whole-cell lysates, 5–10 μg of the cytoplasm fraction, 1–2 μg of nuclear matrix and 2–4 μg of the chromatin fraction were loaded into each lane. For western blot detection of histone 3, 0.4–1 μg of the chromatin fraction was loaded. The gels were run for 0.5 h at 80 V before being run at 120 V for another 1 h. When electrophoresis was completed, the gels containing target proteins were transferred onto NC membrane using the iBlot 2 Gel Transfer Device for 13 min at 20 V. All membranes were blocked with 5% BSA in TBST buffer at room temperature for 1 h and then incubated with primary antibodies specific to the indicated targets in TBST buffer containing 5% BSA at 4 °C overnight. After the primary antibody, membranes were washed three times with TBST buffer before incubation with HRP-conjugated secondary antibodies at room temperature for 1 h. Membranes were stripped with Restore Western Blot Stripping Buffer (Thermo Fisher) for GAPDH reference protein detection after exposure for the target proteins. Images of blots were acquired using Image Quant LAS 4000. Integrated intensity of bands from 16-bit blot images was used for quantitation with the software Image Studio Lite. Protein-quantification data of two independent experiments were calculated and analyzed using GraphPad.

C57BL/6 mice [1] = assay: Bleomycin-induced lung fibrosis model, combination with pirfenidone; assay type: in vivo, mouse; details: INS018_055 3mpk BID; 3 mg/kg
Experimental: Mice received bleomycin on day 1 at a dose of 0.66 mg per kg (equivalent to 1 U per kg), in a volume of 50 μl by intratracheal administration, or received saline (sham group). On day 7, dosing with the corresponding compounds was started. The vehicle group (group 1) was treated with 0.5% methylcellulose BID. […] On days 5 and 21, lung function measurement was performed. On day 28, all animals were killed, and blood and tissue samples were collected along with BALF.
Lung function was measured according to the HDB standard protocol. Expiratory time, relaxation time, peak expiratory flow and peak inspiratory flow were collected and used to calculate Penh data.
Lung sections were cut at a thickness of 4 μm, dried in an oven for 1 h and stained with M&T using our standard protocol. Briefly, sections were stained with Weigert’s iron hematoxylin working solution for 10 min, stained in Biebrich scarlet–acid fuchsin solution for 10 min, differentiated in phosphomolybdic–phosphotungstic acid solution for 5 min or until the collagen was not red, transferred to aniline blue solution, stained for 1 min and then dedifferentiated in 1% acetic acid solution. Next, sections were dehydrated and coverslipped for subsequent image analysis. For image analysis of collagen deposition, Masson’s trichrome-stained slides were scanned by using Aperio ScanScope Model CS2 (Leica) at ×200 magnification. Images were then opened with HALO. Using the pen tool, the whole left lung section was selected as an annotation layer. The area occupied by blue collagen fibers was measured using the pen tool. The percentage of fibrosis (positive areas) in the selected annotation was then calculated with the program. Fibrosis was expressed as a percentage per lung section.
Sections (4 μm thick) were placed on slides, and, after overnight drying, paraffin was removed with xylene. Next, sections were placed in a graded ethanol series and immersed in distilled water. After heat-induced citrate antigen (pH 6.0) unmasking, sections were immersed in 3% hydrogen peroxide solution for 5 min. […] Next, secondary antibodies conjugated to HRP were added. For image analysis of fibrosis, stained sections were used and scanned with the Aperio CS2 Scanner machine. Images were then opened with HALO. Using the pen tool, the whole left lung section was selected as an annotation layer. The bronchus was excluded in the annotation layer. The area occupied by collagen fibers was measured using the ‘Area Quantification v2.1.3’ module. The percentage of positive areas in the selected annotation was then calculated using the program.

healthy subjects = assay: Phase I New Zealand safety (NCT05154240); details: n (%) [E]
C57BL/6 mice [2] = assay: Unilateral ureteral obstruction (UUO) kidney fibrosis model; details: for Positive area (%), per mouse: Fig 5B-D Individual Values;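 on all read-outs here: mice had the left ureter ligated on day 0, received treatment from day 0 through day 14 and were killed on day 14 for kidney analysis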
Experimental: The surgery took place on two separate days. Mice were divided into two slots based on their body weight before the day of the surgery. On day 0 (day of surgery), UUO surgery was performed after administration of three types of mixed anesthetic agents (medetomidine, midazolam, butorphanol). Mice were shaved at the incision site, the abdomen was cut open, and the left ureter was exteriorized and ligated with 4-0 silk sutures at two points. Finally, the peritoneum and the skin were closed with sutures.
Treatments were applied from day 0 to day 14. And animals were killed on day 14, and blood and tissue samples were collected.
Frozen kidney samples were processed by an alkaline acid hydrolysis method as follows. […] Next, AC buffer (2.2 M acetic acid and 0.48 M citric acid, 400 μl) was added to the samples, followed by centrifugation to collect the supernatant. […] The samples were then mixed with Ehrlich’s solution (400 μl) and heated at 65 °C for 20 min to develop color. After samples were cooled on ice and centrifuged to remove precipitates, the optical density of each supernatant was measured at 560 nm. Hydroxyproline concentrations were calculated from the hydroxyproline standard curve. Kidney hydroxyproline contents were expressed as μg per mg protein, and the amount of protein was determined using the BCA Protein Assay Kit (Thermo Fisher Scientific).
At the end of the UUO study, the left kidney was fixed in Bouin’s solution and embedded in paraffin. Kidney sections were stained using picro-Sirius red solution (Waldeck). To quantify the interstitial fibrosis area, brightfield images in the corticomedullary region were captured using a digital camera (DFC295) at 200-fold magnification, and the positive areas in five fields per section were measured using ImageJ software (National Institute of Health).
Paraffin sections were deparaffinized and hydrophilized with xylene, 100–70% alcohol series and RO water, and then circles were drawn around the kidney sections. […] After washing with PBS, kidney sections were treated with PBS with Tween-20 (PBST), followed by incubation with Block Ace (DS Pharma Biomedical) at room temperature for 10 min. The sections were incubated with the primary antibody (anti-collagen I) at 4 °C overnight. After washing with PBS, kidney sections were treated with PBST, followed by incubation with secondary antibody at room temperature for 30 min. After washing with PBS, kidney sections were fixed with 1% glutaraldehyde solution at room temperature for 1 min. After washing with RO water, kidney sections were treated with PBST and then colored using a chromogenic substrate (Simple Stain DAB, Nichirei Bioscience). After washing with RO water, kidney sections were immersed in an eightfold-diluted hematoxylin solution for 1 min and washed with RO water immediately. […] For scoring of IHC analyses, brightfield images were captured using a digital camera (DFC295) at 200-fold magnification, and the score in one field per section was determined.

[3] = INS018_055 3 mg/kg BID, individual animals, Fig 5C-D, 3 mg/kg
[4] = INS018_055 10 mg/kg BID, individual animals, Fig 5C-D, 10 mg/kg
[5] = INS018_055 30 mg/kg BID, individual animals, Fig 5C-D, 30 mg/kg

`CC(C)n1cnc(-c2ccc(F)cc2)c1-c1nc(C(=O)Nc2ccc(N3CCN(C)CC3)cc2)c[nH]1` [INS018_055, 2-[4-(4-fluorophenyl)-1-(prop-2-yl)imidazol-5-yl]-N-[4-(4-methylhexahydropyrazin-1-yl)phenyl]-1H-imidazole-4-carboxamide] was tested. Which “a-SMA normalized by GAPDH” value (HK-2 cells; 0.004572 uM) did it give?
The value was 2.139.

What about the “a-SMA normalized by GAPDH” value (HK-2 cells; 0.0411523 uM) of the same compound?
Its value is 1.835.

What about the “a-SMA normalized by GAPDH” value (HK-2 cells; 0.123457 uM) of the same compound?
The value was 1.612.

What about the “a-SMA normalized by GAPDH” value (HK-2 cells; 0.37037 uM) of the same compound?
Its value is 1.401.

What about the “a-SMA normalized by GAPDH” value (HK-2 cells; 3.33333 uM) of the same compound?
Its value is 1.182.

And the “a-SMA normalized by GAPDH” value (HK-2 cells; 10 uM)?
Its value is 1.23.

And the IC50 (HK-2 cells; TGF-β 8 ng/ml, 48 h, single experiment, read-out: IC50 for α-SMA inhibition)?
Its IC50 is 104 nM.

What about the “Modified Ashcroft Score” value (C57BL/6 mice [1]) of the same compound?
Its value is 5.75 and 4.5 and 3.

And the “Any Death” value (healthy subjects; MAD any dose N=18)?
The value was 0 [0].

And the “Any Death” value (healthy subjects; SAD any dose N=30)?
The value was 0 [0].

What about the “Fibrosis area (sirius red positive area)” value (C57BL/6 mice [2]; [3]) of the same compound?
Its value is 2.24 and 2.26 and 1.61 and 1.34 and 1.14 and 1.04.

And the Kidney hydroxyproline (C57BL/6 mice [2]; [3])?
The Kidney hydroxyproline was 6.42 and 7.24 and 6.97 and 8.63 and 7.89 and 3.86 and 2.76 and 8.85.

And the “Fibrosis area (sirius red positive area)” value (C57BL/6 mice [2]; [4])?
The value was 0.48 and 0.7 and 0.89 and 0.94 and 0.99 and 0.64 and 0.93 and 1.12.

What about the Kidney hydroxyproline (C57BL/6 mice [2]; [4]) of the same compound?
The Kidney hydroxyproline was 4.39 and 2.86 and 3.32 and 6 and 3.14 and 6.84 and 3.33 and 3.

What about the “Collagen Type 1 score” value (C57BL/6 mice [2]; [5]) of the same compound?
Its value is 2.

What about the “Fibrosis area (sirius red positive area)” value (C57BL/6 mice [2]; [5]) of the same compound?
The value was 0.44 and 0.53 and 0.81 and 0.2 and 0.68 and 0.43 and 0.38 and 0.73.

And the Kidney hydroxyproline (C57BL/6 mice [2]; [5])?
The Kidney hydroxyproline was 2.37 and 2.39 and 2.44 and 2.78 and 2.29 and 3.08 and 2.31.

And the “Positive area (%), per mouse” value (C57BL/6 mice [2]; INS018_055 high dose group, value per mouse (501-508) over 5 photos)?
The value was 0.43% and 0.38% and 0.73% and 0.44% and 0.53% and 0.81% and 0.20% and 0.68%.

And the “Positive area (%), per mouse” value (C57BL/6 mice [2]; INS018_055 low dose group, value per mouse (301-308) over 5 photos)?
The value was 1.34% and 1.14% and 1.04% and 2.24% and 2.26% and 1.61%.

What about the “Positive area (%), per mouse” value (C57BL/6 mice [2]; INS018_055 middle dose group, value per mouse (401-408) over 5 photos) of the same compound?
The value was 0.94% and 0.99% and 0.64% and 0.93% and 1.12% and 0.48% and 0.70% and 0.89%.
